From patent US20240358668A1, “METHODS AND CO[…] AM[…] CARD[…] USING (R)-2-AMINO-3-PH[…]” (AXSOME THERAPEUTICS, INC., priority 2021, published 2024)

System: participants with narcolepsy or OSA
Experiment: 1-year OLE study: blood pressure, parent study baseline to OLE week 40
Assay type: in vivo, human
Procedure: A 1-year open-label extension (OLE) study was performed with 374 participants to examined whether clinically significant weight loss (≥5%) in this population had favorable effects on biomarkers of cardiovascular risk compared to no such weight loss. The study measured changes in weight and BP (parent study baseline to OLE week 40) and clinical laboratory assessments (OLE baseline to week 40) in participants with narcolepsy (n=124) or OSA (n=250) who received solriamfetol at doses of 75, 150, or 300 mg/d.
We evaluated changes in weight and BP (parent study baseline to OLE week 40) and clinical laboratory assessments (OLE baseline to week 40) in participants with narcolepsy (n=124) or OSA (n=250) from the OLE study.

[1] = Weight loss <5% at Week 40, all doses, listed as solriamfetol
[2] = Weight loss ≥5% at Week 40, 75 mg/d
[3] = Weight loss ≥5% at Week 40, 150 mg/d
[4] = Weight loss ≥5% at Week 40, 300 mg/d
[5] = Weight loss ≥5% at Week 40, all doses
[6] = Weight loss ≥5% at Week 40, all doses, listed as Solri
[7] = Weight loss ≥5% at Week 40, all doses, listed as solriamfetol

## NC(=O)OC[C@H](N)Cc1ccccc1 [Solriamfetol, (R)-2-amino-3-phenylpropyl carbamate]
Weight loss <5% at Week 40, all doses, listed as Solri
  SBP Change - Wk 40, Mean (SD): 0.65 (12.5) mmHg
[1]
  DBP Change - Wk 40, Mean (SD): 1.2±8.7 mmHg
  SBP Change - Wk 40, Mean (SD): 0.65±12.5 mmHg
[2]
  DBP Change - Wk 40, Mean (SD): −3.8 mmHg
  DBP Change - Wk 40, Median: −3.8 mmHg
  DBP maximum changes from baseline to week 40: Decrease ≥10%: 0 n (%)
  DBP maximum changes from baseline to week 40: Decrease ≥20%: 0 n (%)
  DBP maximum changes from baseline to week 40: Decrease ≥30%: 0 n (%)
  DBP maximum changes from baseline to week 40: Increase ≥10%: 0 n (%)
  DBP maximum changes from baseline to week 40: Increase ≥20%: 0 n (%)
  DBP maximum changes from baseline to week 40: Increase ≥30%: 0 n (%)
  SBP Change - Wk 40, Mean (SD): −3.3 mmHg
  SBP Change - Wk 40, Median: −3.3 mmHg
  SBP maximum changes from baseline to week 40: Decrease ≥10%: 0 n (%)
  SBP maximum changes from baseline to week 40: Decrease ≥20%: 0 n (%)
  SBP maximum changes from baseline to week 40: Decrease ≥30%: 0 n (%)
  SBP maximum changes from baseline to week 40: Increase ≥10%: 0 n (%)
  SBP maximum changes from baseline to week 40: Increase ≥20%: 0 n (%)
  SBP maximum changes from baseline to week 40: Increase ≥30%: 0 n (%)
[3]
  DBP Change - Wk 40, Mean (SD): −1.9 (9.9) mmHg
  DBP Change - Wk 40, Median: 0.5 mmHg
  DBP maximum changes from baseline to week 40: Decrease ≥10%: 5 (22.7) n (%)
  DBP maximum changes from baseline to week 40: Decrease ≥20%: 1 (4.5) n (%)
  DBP maximum changes from baseline to week 40: Decrease ≥30%: 0 n (%)
  DBP maximum changes from baseline to week 40: Increase ≥10%: 3 (13.6) n (%)
  DBP maximum changes from baseline to week 40: Increase ≥20%: 0 n (%)
  DBP maximum changes from baseline to week 40: Increase ≥30%: 0 n (%)
  SBP Change - Wk 40, Mean (SD): −4.5 (13.8) mmHg
  SBP Change - Wk 40, Median: −2.8 mmHg
  SBP maximum changes from baseline to week 40: Decrease ≥10%: 7 (31.8) n (%)
  SBP maximum changes from baseline to week 40: Decrease ≥20%: 1 (4.5) n (%)
  SBP maximum changes from baseline to week 40: Decrease ≥30%: 1 (4.5) n (%)
  SBP maximum changes from baseline to week 40: Increase ≥10%: 3 (13.6) n (%)
  SBP maximum changes from baseline to week 40: Increase ≥20%: 1 (4.5) n (%)
  SBP maximum changes from baseline to week 40: Increase ≥30%: 0 n (%)
[4]
  DBP Change - Wk 40, Mean (SD): −0.8 (8.9) mmHg
  DBP Change - Wk 40, Median: −0.3 mmHg
  DBP maximum changes from baseline to week 40: Decrease ≥10%: 11 (15.1) n (%)
  DBP maximum changes from baseline to week 40: Decrease ≥20%: 3 (4.1) n (%)
  DBP maximum changes from baseline to week 40: Decrease ≥30%: 0 n (%)
  DBP maximum changes from baseline to week 40: Increase ≥10%: 8 (11.0) n (%)
  DBP maximum changes from baseline to week 40: Increase ≥20%: 0 n (%)
  DBP maximum changes from baseline to week 40: Increase ≥30%: 0 n (%)
  SBP Change - Wk 40, Mean (SD): −2.0 (10.8) mmHg
  SBP Change - Wk 40, Median: −1.8 mmHg
  SBP maximum changes from baseline to week 40: Decrease ≥10%: 20 (27.4) n (%)
  SBP maximum changes from baseline to week 40: Decrease ≥20%: 2 (2.7) n (%)
  SBP maximum changes from baseline to week 40: Decrease ≥30%: 0 n (%)
  SBP maximum changes from baseline to week 40: Increase ≥10%: 13 (17.8) n (%)
  SBP maximum changes from baseline to week 40: Increase ≥20%: 1 (1.4) n (%)
  SBP maximum changes from baseline to week 40: Increase ≥30%: 0 n (%)
[5]
  DBP Change - Wk 40, Median: −0.3 mmHg
  DBP maximum changes from baseline to week 40: Decrease ≥10%: 16 (16.7) n (%)
  DBP maximum changes from baseline to week 40: Decrease ≥20%: 4 (4.2) n (%)
  DBP maximum changes from baseline to week 40: Decrease ≥30%: 0 n (%)
  DBP maximum changes from baseline to week 40: Increase ≥10%: 11 (11.5) n (%)
  DBP maximum changes from baseline to week 40: Increase ≥20%: 0 n (%)
  DBP maximum changes from baseline to week 40: Increase ≥30%: 0 n (%)
  SBP Change - Wk 40, Median: −2.8 mmHg
  SBP maximum changes from baseline to week 40: Decrease ≥10%: 27 (28.1) n (%)
  SBP maximum changes from baseline to week 40: Decrease ≥20%: 3 (3.1) n (%)
  SBP maximum changes from baseline to week 40: Decrease ≥30%: 1 (1.0) n (%)
  SBP maximum changes from baseline to week 40: Increase ≥10%: 16 (16.7) n (%)
  SBP maximum changes from baseline to week 40: Increase ≥20%: 2 (2.1) n (%)
  SBP maximum changes from baseline to week 40: Increase ≥30%: 0 n (%)
[6]
  DBP Change - Wk 40, Mean (SD): −1.0 (9.0) mmHg
  SBP Change - Wk 40, Mean (SD): −2.6 (11.4) mmHg
[7]
  DBP Change - Wk 40, Mean (SD): −1.0±9.0 mmHg
  SBP Change - Wk 40, Mean (SD): −2.6±11.4 mmHg
